Test results taken from patent US6627218B2, “Cationic amphiphiles of cholesterol” (The University of Tennessee Research Foundation, priority 1991, dated 2003).
Counter-ions that a name gives are not always drawn.

How the values were obtained:
mouse L929 cells [1] = assay: Transfection of L929 cells with pUCSV2CAT, CAT activity; type: cell-based; design: Relative CAT Activity: scale not given here; settings: for Relative CAT Activity: dispersion with co-lipid DOPE, plasmid pUCSV2CAT, L929 cells
Method: (§1) The cationic cholesterol derivatives of the invention were mixed with a phospholipid co-lipid in chloroform solution at different molar ratios. The solvent was removed by evaporation under a stream of N2 gas and desiccated in vacuo for at least 30 minutes. The dry lipid film was hydrated in 20 mM Hepes buffer, pH 7.8, overnight. The suspension was sonicated in a bath-type sonicator (Laboratory Supplies, Hicksville, N.Y.) to generate small particle dispersions (average diameter=150 nm). The co-lipid is phosphatidylethanolamine.
Plasmid pUCSV2CAT (approximately 5kb in size) containing the structural gene of E. coli chloramphenicol acetyl transferase (CAT) driven by the SV40 virus early promoter was used as a model for the polyanions to be delivered by the cationic lipid dispersions. DNA was mixed with the cationic lipid dispersions of the invention in 1 ml serum-free M199 medium or McCoy's medium to form DNA/lipid complex. Cultured mammalian cells of about 80-100% confluency in a 6-well plate were washed once with serum-free medium. The DNA/lipid complex was added to the washed cells which were incubated at 37° C. for 5 hours. The cells were washed again and the serum-containing medium was added. Cells were harvested 30-72 hours later and extracted for cellular proteins. The CAT activity in the extracted protein was measured by using either [^14C] chloramphenicol or [^3H] acetyl CoA as a radiolabeled substrate. One activity unit of CAT is defined as nmole of radiolabeled substrate converted to the radiolabeled product in one minute. Protein content in the cell extracts was measured by the Bradford (BIORAD) assay.
Plasmid DNA, pUCSV2CAT, was used as a model compound for polyanions because it contains a structural gene for CAT. The efficiency of intracellular delivery can be readily assayed by the expression of CAT activity in the extracted proteins of the treated cells. Table 1 lists the CAT activity of mouse L929 cells which have been transfected with this plasmid DNA as mediated by various cationic lipid dispersions. In addition, the inhibitory activity of the pure cationic cholesterol derivatives on diolefin, phosphatidyl serine (PS), and Ca^2+stimulated protein kinase C was also measured. This activity was expressed as an IC50 which is the concentration at which 50% of PKC activity was inhibited.

protein kinase C (PKC) = assay: Mixed micelle assay of protein kinase C; type: biochemical, rat; settings: pure cationic cholesterol derivative; diolefin, phosphatidyl serine and Ca2+ stimulated PKC; read-out: PKC Inhibition IC50
Method: As rapidly as possible, brains for 25 Sprague-Dawley rats (150-200 g) were removed, washed with 100 ml of 20 mM TRIS, 1 mM EDTA, 1 mM EGTA, pH 7.5, and homogenized in 150 ml of ice cold 20 mM TRIS, 10 mM EGTA, 2 mM EDTA, 10 mM DTT, 0.25 M sucrose, 2 mM PMSF and 100 μg/ml leupeptin, pH 7.5. The homogenate was immediately centrifuged at 100,000 g for 40 minutes at 4° C. in a Beckman Ti 50.2 rotor. The supernatant was applied to a 2.5×20 cm column of DEAE Sepharose (fast flow) containing 60 of resin equilibrated with 20 mM TRIS, 1 mM EDTA, 1 mM DTT, pH 7.5 (buffer A). The column was washed with 300 ml of buffer A and an additional 200 ml of buffer A containing 0.03 M KCl. Protein kinase C was eluted with a 500 ml continuous KCl gradient (0.03-0.3 M KCl). Fractions of 5 ml volumes were collected. Fractions showing calcium and phospholipid dependence were pooled; the salt concentration was adjusted to 1.5 KCl with the appropriate quantity of solid KCl. The crude sample containing 1.5 M KCl was stirred for 15 minutes and subsequently loaded onto a 1×10 cm column containing 9 ml Phenyl sepharose equilibrated with 1.5 M KCl in 20 mM TRIS, 0.5 mM EGTA, 1 mM DTT, pH 7.5 (buffer B). The column was washed with 90 ml of buffer B containing 1.5 M KCl. PKC was eluted with a 100 ml continuous KCl gradient (1.5-0 M KCl). Fractions of 3 ml volumes were collected. The column was washed with an additional 50 ml of buffer B. Most of the enzyme activity eluted during this stage. Fractions showing calcium and phospholipid dependence were pooled and concentrated to 4 ml using an Amicon ultrafiltration cell fitted with a YM-10 filter. The concentrated sample was loaded onto a 2.5×100 cm column containing 400 ml of Sephacryl S-200 HR beads equilibrated with buffer B containing 10% glycerol (buffer C). Fractions of 3 ml volumes were collected. About 150 ml of buffer was run through; PKC eluted very close to the column void volume. The fractions showing calcium and phospholipid dependence were pooled and loaded onto a 0.5×5 cm column containing 2.5 ml polylysine agarose equilibrated with buffer C. PKC was eluted with a 40 ml continuous KCl gradient (0-0.8 M KCl). Fractions of 1 ml volumes were collected. The first few active fractions were contaminated. The uncontaminated fractions were pooled, concentrated, and diluted with buffer C to remove the high salt content. After reconcentrating, the sample was divided into working portions, frozen in liquid nitrogen and stored at −80° C. Full activity was regained after rapid thawing. Trace impurities (116 k, 66 k, and 50 k Mr) could still be detected when the gel was silver stained heavily. The enzyme gave a specific activity of 200 nmoles phosphate incorporated per minute per milligram of protein when assayed for histone phosphorylation using the Triton mixed micelle assay with 6.5 mole % phosphatidylserine, 2.5 mole % DAG and 100 μM calcium present. Specific activities ranging from 30 nmoles/min/mg to 600 nmoles/min/mg have been observed for PKC using the Triton mixed micelle assay under the same conditions.
Phosphatidylserine and 1,2-diolefin with and without additive were dissolved in a solution of chloroform/methanol (2:1, v/v). Solvent was evaporated with a stream of nitrogen and last traces removed using a vacuum desiccator at 40° C. The lipid films were then solubilized by the addition of 3% Triton X-100, vortexed vigorously for 30 seconds and then incubated at 30° C. for 10 minutes to allow for equilibration. […]

[2] = Formation of homogenous dispersion by sonication; type: physicochemical; settings: sonication in low ionic strength buffer
Method: as §1
None of the cationic cholesterol derivatives by themselves form stable homogenous dispersion by sonication in a low ionic strength buffer. When stable dispersions are desired, it was necessary to add an acidic or neutral phospholipid to form mixed lipid dispersion. […] In the case of compound XIV, a minimal ration of phosphatidyl choline (PC) or phosphatidyl ethanolamine (PE) to XIV=4:6 is required. Such non-cationic lipid used in the dispersion is called co-lipid.

mouse L929 cells [3] = assay: Transfection of L929 cells with pUCSV2CAT, CAT activity; type: cell-based; settings: molar ratio 1:1, L929 cells (FIG. 4)

Molecule	Relative CAT Activity (mouse L929 cells [1])	IC50 (protein kinase C (PKC))	also measured
CC(C)CCCC(C)C1CCC2C3CC=C4CC(OC(=O)CCC(=O)NCC[N+](C)(C)C)CCC4(C)C3CCC12C (stereo not drawn) [IX, Cholesteryl-3β-Oxysuccinamidoethylenetrimethylammonium Iodide]	50	59 µM	
CC(C)CCCC(C)C1CCC2C3CC=C4CC(C(=O)NCC[N+](C)(C)C)CCC4(C)C3CCC12C (stereo not drawn) [IV, Cholesteryl-3β-Carboxyamidoethylenetrimethylammonium Iodide]		12 µM	
CC(C)CCCC(C)C1CCC2C3CC=C4CC(C(=O)OC(CN(C)C)C[N+](C)(C)C)CCC4(C)C3CCC12C (racemic) [Compound VI, 1-Dimethylamino-3-Trimethylammonio-DL-2-Propyl Cholesteryl Carboxylate Iodide Salt]		11 µM	
CC(C)CCCC(C)C1CCC2C3CC=C4CC(C(=O)NCCN(C)C)CCC4(C)C3CCC12C (stereo not drawn) [Compound III, Cholesteryl-3β-Carboxyamidoethylenedimethylamine]	18	258 µM	melting point: 167 to 169 °C
CC(C)CCCC(C)C1CCC2C3CC=C4CC(OC(=O)CCC(=O)NCCN(C)C)CCC4(C)C3CCC12C (stereo not drawn) [VIII, Cholesteryl-3β-oxysuccinamidoethylenedimethylamine]	100	191 µM	Minimal ratio of co-lipid (PC or PE) to cationic lipid required to form a uniform dispersion [2]: 1 part of PC or PE and 9 parts of compound VIII; DNA delivery activity of mixed dispersion (mouse L929 cells [3]; acidic co-lipids PS and PG): None of the acidic lipids, such as PS and phosphatidylglycerol (PG) showed any activity; DNA delivery activity of mixed dispersion (mouse L929 cells [3]; other neutral co-lipids DOPC, N-methyl-DOPE, N,N-dimethyl DOPE): little or no activity; Content of cationic lipid in DOPE dispersion at maximal DNA delivery activity (mouse L929 cells [1]; DOPE co-lipid, L929 cells (FIG. 5)): 20-50%; DNA delivery activity of mixed dispersion (mouse L929 cells [1]; co-lipid DOPE, molar ratio 1:1, L929 cells (FIG. 4)): only DOPE supported the delivery activity
3β[N-(polyethyleneimine)-carbamoyl]cholesterol [XV]	11		
CC(C)CCCC(C)C1CCC2C3CC=C4CC(OC(=O)CCC(=O)OC(CN(C)C)CN(C)C)CCC4(C)C3CCC12C (stereo not drawn) [Compound X, 1,3-Bi-Dimethylamino-2-Propyl-Cholesteryl-3β-Oxysuccinate]	0.5	408 µM	
CC(C)CCCC(C)C1CCC2C3CC=C4CC(OC(=O)CCC(=O)OCCN(C)CC[N+](C)(C)C)CCC4(C)C3CCC12C (stereo not drawn) [XIII, 2-{[2-Trimethylammonio]ethylmethylamino}ethyl-Cholesteryl-3β-Oxysuccinate Iodine Salt]		20 µM	
CC(C)CCCC(C)C1CCC2C3CC=C4CC(C(=O)NCCN)CCC4(C)C3CCC12C (stereo not drawn) [Compound VII, Cholesteryl-3β-Carboxyamidoethyleneamine]		246 µM	
CC(C)CCCC(C)C1CCC2C3CC=C4CC(OC(=O)CCC(=O)OCCN(C)CCN(C)C)CCC4(C)C3CCC12C (stereo not drawn) [XII, 2-{[2-(dimethylamino)ethyl]methylamino}ethyl-Cholesteryl-3β-Oxysuccinate]	19	164 µM	melting point: 50 to 52 °C
CC(C)CCCC(C)C1CCC2C3CC=C4CC(OC(=O)NCCN(C)C)CCC4(C)C3CCC12C (stereo not drawn) [Compound XIV, 3β[N-(N′,N′-dimethylaminoethane)-carbamoyl]cholesterol]	75	> 1000 µM	
CC(C)CCCC(C)C1CCC2C3CC=C4CC(OC(=O)CCC(=O)OC(CN(C)C)C[N+](C)(C)C)CCC4(C)C3CCC12C (racemic) [Compound XI, 1-Dimethylamino-3-Trimethylammonio-DL-2-Propyl-Cholesteryl-3β-Oxysuccinate Iodide Salt]		15 µM	
CC(C)CCCC(C)C1CCC2C3CC=C4CC(C(=O)OC(CN(C)C)CN(C)C)CCC4(C)C3CCC12C (stereo not drawn) [Compound V, 1,3-Bis-Dimethylamino-2-Propyl-Cholesteryl-3β-Carboxylate]	2	643 µM	
